From US20150374709A1, “TETRA-SUBSTITUTED NDGA DERIVATIVES VIA ETHER BONDS AND CARBAMATE BONDS AND THEIR SYNTHESIS AND PHARMACEUTICAL USE” (ERIMOS PHARMACEUTICALS LLC, priority 2006, published 2015)
Values joined by “and” are separate entries in the source; they are usually repeats but may differ in a detail not shown here. Equal entries are not always repeated. Structures can show the parent of a compound that is named as a salt. Where two headings read alike, the source gives them in different places.

Assays:
Caco-2 cell monolayers = assay: Caco-2 monolayer bidirectional permeability; type: in vitro ADME, human
Experimental: (§1) Permeability studies were conducted by an outside contractor on behalf of the assignee of the present invention and application to determine the permeability of Compound A through Caco-2 monolayers. An important factor of oral bioavailability is the ability of e compound to be absorbed in the small intestine. Measurement of drug apparent permeability (Papp) through cell monolayers is well correlated with human intestinal absorption, and several mammalian cell lines, including Caco-2, LLC-PK1 and MDCK, are appropriate for this measurement (Artursson, P. et al., Correlation between oral drug absorption in humans and apparent drug permeability coefficients in human intestinal epithelial (Caco-2) cells. Biochem Biophys Res Comm 175:880-885 (1991); Stewart. B. H., et al., Comparison of intestinal permeabilities in multiple in vitro and in situ models: relationship to absorption in humans. Pharm Res 12:693 (1995)). P-Glycoprotein (P-gp, encoded by MDR1) is a member of the ABC transporter super family and is expressed in the human intestine, liver and other tissues. Intestinal expression of P-gp may affect the oral bioavailability of drug molecules that are substrates for this transporter. Interaction with P-gp can be studied using direct assays of drug transport in polarized cell systems such as Caco-2 cell monolayers, and human P-gp cDNA-expressing LLC-PK1 and MDCK cell monolayers. Caco-2 cells (human adenocarcinoma colonic cell line Caco-2, ATCC Cat. No. […] The cells were cultured for 21-25 days with media replacement every 3-4 days. Monolayer integrity was evaluated by pre-experimental trans-epithelial electrical resistance (TEER) measurements and post-experimental lucifer yellow A to B flux determinations. […] Receiver solution was prepared by adding 1% DMSO to transport buffer. The test solution was of Compound A in DMSO in transport buffer at a final DMSO concentration of 1%. […] The donor and receiver solutions were added to the apical or basolateral chambers of the monolayers (depending on the direction of transport to be measured). The monolayers were incubated on an orbital shaker (50 rpm) at 37° C., with ambient humidity and CO2. After 90 minutes, samples from the donor and receiver chambers were removed for analysis. […] Duplicate monolayers were used for each incubation. Samples were analyzed by LC/MS/MS using peak area ratios to an internal standard. Test article concentrations were calculated based on the peak area ratios obtained for appropriate dilutions of the donor solution containing the test article at the nominal concentration in transport buffer. Samples were diluted as appropriate to ensure that the response was within the linear range of the mass spec detector. Comparator and control samples were analyzed by liquid scintillation counting. Lucifer yellow concentrations were determined using a fluorescence plate reader.

A549 (lung carcinoma) = assay: MTS cell viability assay, A549; type: cell-based; conditions: Homo sapiens
Text: (§2) Studies performed regarding cytotoxicity included the well-known MTS, Trypan Blue and MTT protocols. The MTS studies were done using the CellTiter 96®AQueous One Solution Cell Proliferation Assay (Promega Corporation, Madison, Wis. USA). Metabolically active, namely viable, cells turn MTS, a tetrazolium compound (3-(4,5-dimethylthiazol-2-yl)-5-(3-carboxymethoxyphenyl)-2-(4-sulfophenyl)-2H-tetrazolium, inner salt) into colored formazan, which is soluble in tissue culture medium. The measurement of the absorbance of the formazan is read at 490 nm. The ready to use reagent is added directly to the cells in media in 96-well plates, incubated 1-4 hours and the results are recorded by the plate reader. The IC50 is estimated by graphing the gathered data. The IC50 is the concentration of the tested material that inhibits 50% of growth or viability of the tested material compared to a control.
(§3) Three cell lines obtained from ATCC and maintained as directed by ATCC were tested: HeLa (cervical adenocarcinoma), A549 (lung carcinoma), and COS-7 (SV40 transformed monkey kidney). Studies of these cell lines are considered to be indicative of the effect of tested substances on mammalian, including human, diseases.
(§4) All compounds were dissolved in DMSO and DMSO is used as the placebo. The samples were first dissolved into 10 mM dilutions in DMSO and then diluted further to 5, 1, 0.5, 0.1, 0.05, and 0.01 mM solutions. These solutions were added to the media at a 1% concentration (1 μl to 100 μl media) to treat the cells with 100, 50, 10, 5, 1, 0.5, and 0.1 μM of the compound. […] Solutions were checked before use for precipitation, especially the 10 mM solutions. If there was precipitation, they were warmed 65° C. and added to warmed media.
(§5) Wells on a 96-well plate were seeded with 1.5-8×10^4 cells in 100 μl media and incubated overnight. The outside wells of the plate were filled with 200 μl sterile, deionized (DI) water to curb media evaporation. After 24 hours, test chemicals were prepared in media at a concentration of 1% media volume. The test sample media were added, mixing with pipette before adding 100 μl per well. Media was added to the “Media Only” wells. The well plate and its contents were incubated for 24-72 hours, depending on the study conducted. On the thy of the MTS assay, the MTS reagent was removed from the refrigerator and brought to room temperature. Using the multichannel pipette, 20 μl of the MTS reagent was added to each well and incubated for one to four hours. The plate was read at 490 nm with a reference wavelength of 690 nm after one hour in the incubator thereafter until the blank wells were at about 0.2 OD. The results were then scanned into a Microsoft® Excel® template designed to perform all necessary calculations whim data are entered. The data were checked for statistical errors; data points that are within 10% of the mean of the data points for that group were included. The average of the blanks (“Media Only”) were subtracted and the data were inserted into a chart that represents growth response, treated/untreated.

[1] = system: HeLa (cervical adenocarcinoma); assay: MTS cell viability assay, HeLa; type: cell-based; conditions: Homo sapiens, HeLa, read-out: HeLa IC50
Text: as §2, §3, §4, §5

[2] = system: apoptosis of cells based on DNA fragmentation; assay: TiterTACS DNA fragmentation apoptosis assay; type: cell-based; conditions: TiterTACS apoptosis detection
Experimental: Antiproliferative activity is determined using the TiterTACS® Apoptosis Detection Kit (R&D Systems Inc., Minneapolis, Minn. USA) relating to apoptosis of cells based on DNA fragmentation, and by the ELISA VEGF ([…]) and survivin assays.
In the DNA fragmentation assay, in situ detection of apoptosis is specifically achieved with TiterTACS® 96-well Apoptosis Detection kit, Catalog No. TA600 (R&D Systems, Inc.). The TiterTACS® assay provides quantification of apoptosis in cultured cells without direct counting of labeled cells using colorimetric detection. Cells are treated with the test compounds, left untreated as experimental negative controls, or treated with TACS nuclease as positive controls. TACS nuclease allows positive controls to be generated for each experimental system: a brief treatment of cells with the TACS nuclease prior to labeling generates DNA breaks in every cell, providing an appropriate positive control specific for the system under study. The TdT enzyme that catalyzes the addition of dNTPs to DNA fragments allows for colorimetric detection of at 450 nm by using a streptavidin-HRP solution followed by the TACS-Sapphire substrate. A high absorbance at 450 nm is indicative of apoptosis in the cells. Treated cells are compared to untreated cells and to nuclease-cleaved cells to assess the extent of apoptosis.

survivin = assay: ELISA survivin assay (cell lysates); type: cell-based, Human
Text: Survivin is an inhibitor of apoptosis that is abundantly expressed in many human cancers, but not in normal adult human tissue, and is considered a possible modulator of the terminal effector phase of cell death/survival. Survivin is expressed in G2-M in a cell cycle-dependent manner, binding directly to mitotic spindle microtubules. […] Phosphorylated survivin acts on the caspase pathway to suppress the formation of caspase-3 and caspase-9, thereby inhibiting apoptosis. Thus, compounds that reduce the expression of survivin will be expected to increase the rate of apoptosis and cell death.
Effects of the tested compounds on survivin were studied following manufacturer's instructions using the Surveyor™ IC Human Total Survivin Immunoassay, Catalog No. SUV647 (R&D Systems, Inc.). Cell lysates were analyzed for survivin protein content. The kit includes a plate coated with an antibody specific for survivin and a biotinylated antibody reagent that recognizes survivin bound to the plate. The plate is read on a plate reader set at 450 nm and corrected at 540 nm. A protein assay according to the Bradford method (Bradford, M. 1976, Anal Biochem 72: 248-254) was used to quantify and normalize the samples according to total protein content. Results from a standard curve enable the user to quantify the amount of survivin protein in each sample.

VEGF = assay: ELISA VEGF assay (DFO-treated cells); type: cell-based, Human
Text: ELISA (Enzyme-Linked ImmunoSorbent Assay) VEGF studies were done following manufacturer's instructions using the Endogen® Human VEGF ELISA kit, Catalog No. […] (Pierce Biotechnology, Inc., Rockford, Ill. USA). Hypoxic conditions are created for the cells by treating them with desferrioxamine (DFO), which chelates iron and causes the cells to secrete VEGF into the media. The supernatant (media) was removed and frozen for testing, and the cells were counted with the Trypan Blue assay so that the results can be normalized to cell count. The VEGF is measured with a sandwich ELISA that captures the protein in media on an antibody-coated microplate, and then uses a biotinylated antibody reagent to detect the protein. Results from a standard curve enable the user to quantify the amount of protein in each sample.

[3] = Caco-2 monolayer bidirectional permeability; type: in vitro ADME, human; conditions: human, Caco-2, pH 7.4; control at 5 μM, 90 minutes, duplicate monolayers
Experimental: as §1

[4] = A549, MTS assay, read-out: A549 IC50
[5] = read-out: Survivin IC50; survivin protein in cell lysates, normalized to total protein
[6] = survivin protein in cell lysates, normalized to total protein; read-out: Survivin IC50
[7] = VEGF released into media by DFO-treated cells, normalized to cell count; read-out: VEGF IC50

For `CC(C)NCC(O)COc1cccc2ccccc12` (centres unmarked) [propranolol, reference compound], the “Mass balance mean A to B” value (Caco-2 cell monolayers; human, Caco-2, 90 min, pH 7.4) was 71%.
In the case of `C[C@H](Cc1ccc(OCCF)c(OCCF)c1)[C@@H](C)Cc1ccc(OCCF)c(OCCF)c1` [Compound K, 1,4-bis[3,4-bis(2-fluoro-ethoxyl)phenyl]-2,3-dimethyl-(2R,3S)-butane], the IC50 (A549 (lung carcinoma); [4]) is reported as over 100 µM and the IC50 ([1]; MTS assay) is reported as over 100 µM.
In the case of `C[C@H](Cc1ccc(OCCCCN2CCN(C)CC2)c(OCCCCN2CCN(C)CC2)c1)[C@@H](C)Cc1ccc(OCCCCN2CCN(C)CC2)c(OCCCCN2CCN(C)CC2)c1` [Compound O, 1,4-bis{3,4-bis[4-(N-methyl-piperazino-N′-yl)butoxyl]phenyl}-2,3-dimethyl-(2R,3S)-butane octa-hydrochloride], the DNA fragmentation [2] is reported as “Positive”, the IC50 (A549 (lung carcinoma); A549, read-out: A549 IC50) is reported as 8 to 9 µM and the IC50 (survivin; [5]) is reported as 14 µM. It also gave an IC50 [1] of 10 to 30 µM and an IC50 (VEGF; read-out: VEGF IC50; VEGF released into media by DFO-treated cells, normalized to cell count) of 18 µM.
With `C[C@H]1O[C@@H](O[C@H]2[C@@H](O)C[C@H](O[C@H]3[C@@H](O)C[C@H](O[C@H]4CC[C@@]5(C)[C@H](CC[C@@H]6[C@@H]5C[C@@H](O)[C@]5(C)[C@@H](C7=CC(=O)OC7)CC[C@]65O)C4)O[C@@H]3C)O[C@@H]2C)C[C@H](O)[C@@H]1O` [digoxin, reference compound] the “Papp mean A to B” value (Caco-2 cell monolayers; comparators/control at the concentration in the row (5 or 50 μM), 90 minutes, duplicate monolayers) was 2.28 ×10⁻⁶ cm/s, the “Mass balance mean A to B” value (Caco-2 cell monolayers; comparators/control, 90 minutes) was 73% and the “Mass balance mean B to A” value (Caco-2 cell monolayers; control, 90 minutes) was 79%. It also gave a Papp B→A at 90 min [3] of 12.4 ×10⁻⁶ cm/s.
For `C[C@H](Cc1ccc(OCCN(C)C)c(OCCN(C)C)c1)[C@@H](C)Cc1ccc(OCCN(C)C)c(OCCN(C)C)c1` [Compound H, 1,4-bis{3,4-bis(2-(N,N′-dimethylamino)-ethoxy)phenyl}-2,3-dimethyl-(2R,3S)-butane tetrakishydrochloride salt], the DNA fragmentation [2] was “Positive”, the IC50 (survivin; [5]) was 10 µM and the IC50 (VEGF; read-out: VEGF IC50; VEGF released into media by DFO-treated cells, normalized to cell count; listed as H in H2O) was 23 µM.
In the case of `C[C@H](Cc1ccc(OCCN(C)C)c(OCCN(C)C)c1)[C@@H](C)Cc1ccc(OCCN(C)C)c(OCCN(C)C)c1` [Compound G, 1,4-bis{3,4-bis(2-(N,N′-dimethylamino)-ethoxy)phenyl}-2,3-dimethyl-(2R,3S)-butane], the IC50 (A549 (lung carcinoma); A549, read-out: A549 IC50) is reported as 15 to 20 µM, the IC50 [1] is reported as 15 to 20 µM and the IC50 (VEGF; read-out: VEGF IC50; VEGF released into media by DFO-treated cells, normalized to cell count; listed as G in H2O) is reported as 25 µM.
With `OC[C@@H](O)[C@@H](O)[C@H](O)[C@H](O)CO` [mannitol, reference compound] the “Mass balance mean A to B” value (Caco-2 cell monolayers; human, Caco-2, 90 min, pH 7.4) was 96%.
For `C[C@H](Cc1ccc(OCCCCN2CCCCC2)c(OCCCCN2CCCCC2)c1)[C@@H](C)Cc1ccc(OCCCCN2CCCCC2)c(OCCCCN2CCCCC2)c1` [Compound D, 1,4-bis{3,4-bis[4-(N-piperidino)butoxyl]phenyl}-2,3-dimethyl-(2R,3S)-butane tetrakis-hydrochloride salt], the DNA fragmentation [2] was “Positive”, the IC50 (A549 (lung carcinoma); [4]) was 1 to 5 µM and the IC50 (survivin; [6]) was ~4 µM and 4 µM. For the same compound, the IC50 ([1]; MTS assay) was 5 to 10 µM and the IC50 (VEGF; [7]) was ~9 µM and 9 µM.
For `C[C@H](Cc1ccc(OCCCCN2CCOCC2)c(OCCCCN2CCOCC2)c1)[C@@H](C)Cc1ccc(OCCCCN2CCOCC2)c(OCCCCN2CCOCC2)c1` [Compound M, 1,4-bis{3,4-bis[4-(N-morpholino)butoxyl]phenyl}-2,3-dimethyl-(2R,3S)-butane], the DNA fragmentation [2] was “Positive”, the IC50 (A549 (lung carcinoma); [4]) was 1 to 5 µM and the IC50 (survivin; [6]) was 5 µM. The IC50 ([1]; MTS assay) was 5 to 10 µM and the IC50 (VEGF; [7]) was ~9 µM and 9 µM.
